Measured values from ChEMBL document CHEMBL5705888, “Substrate specificity and inhibitors of LRRK2, a protein kinase mutated in Parkinson's disease” (Biochem J, 2009).
Calls of active or inactive are those of the source. The rule behind the calls is not given here.

What was measured:
[1] = target: Dual specificity tyrosine-phosphorylation-regulated kinase 1A (Homo sapiens) (UniProt Q13627); experiment: Inhibition of DYRK1A (unknown origin) at 1 uM incubated for 30 mins in presence of [gamma-33P]ATP by multidrop micro reagent based assay relative to control; values are per cent of control
[2] = target: Serine/threonine-protein kinase Chk1 (Homo sapiens) (UniProt O14757); experiment: Inhibition of CHK1 (unknown origin) at 1 uM incubated for 30 mins in presence of [gamma-33P]ATP by multidrop micro reagent based assay relative to control; values are per cent of control
[3] = target: T1, Mitogen-activated protein kinase kinase kinase kinase 2 (Homo sapiens) (UniProt Q12851); experiment: Inhibition of GCK (unknown origin) at 0.1 uM incubated for 30 mins in presence of [gamma-33P]ATP by multidrop micro reagent based assay relative to control
T1 sequence (whole entry): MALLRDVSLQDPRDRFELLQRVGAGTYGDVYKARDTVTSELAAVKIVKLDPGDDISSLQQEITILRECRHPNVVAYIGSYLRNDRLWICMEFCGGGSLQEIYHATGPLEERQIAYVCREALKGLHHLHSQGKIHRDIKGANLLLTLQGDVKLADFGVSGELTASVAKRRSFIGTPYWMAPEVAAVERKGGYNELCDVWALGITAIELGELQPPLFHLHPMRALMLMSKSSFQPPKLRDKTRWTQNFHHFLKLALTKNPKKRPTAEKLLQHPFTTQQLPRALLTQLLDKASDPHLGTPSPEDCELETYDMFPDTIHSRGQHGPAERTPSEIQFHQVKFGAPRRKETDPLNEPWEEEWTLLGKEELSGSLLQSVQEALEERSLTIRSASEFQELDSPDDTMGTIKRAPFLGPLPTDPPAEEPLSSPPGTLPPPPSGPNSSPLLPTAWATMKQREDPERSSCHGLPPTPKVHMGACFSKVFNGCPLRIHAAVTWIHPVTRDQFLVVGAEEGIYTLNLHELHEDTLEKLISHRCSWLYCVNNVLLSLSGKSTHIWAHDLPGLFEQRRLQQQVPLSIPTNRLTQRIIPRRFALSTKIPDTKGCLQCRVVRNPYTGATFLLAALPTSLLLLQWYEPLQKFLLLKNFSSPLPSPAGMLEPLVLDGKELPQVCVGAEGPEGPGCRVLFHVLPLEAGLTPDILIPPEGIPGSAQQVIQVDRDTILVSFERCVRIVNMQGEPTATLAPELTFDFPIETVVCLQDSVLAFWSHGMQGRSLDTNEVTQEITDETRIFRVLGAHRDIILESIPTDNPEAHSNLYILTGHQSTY

[4] = target: Leucine-rich repeat serine/threonine-protein kinase 2 (Mus musculus) (UniProt Q5S006); experiment: Inhibition of LRRK2 in mouse Swiss-3T3 cells at 0.3 uM using Nictide as substrate by immunoblot analysis; assay type: cell-based
[5] = target: Serine/threonine-protein kinase D1 (Homo sapiens) (UniProt Q15139); experiment: Residual activity of PKD1 (unknown origin) at 10 uM incubated for 30 mins in presence of [gamma-33P]ATP by multidrop micro reagent based assay relative to control
[6] = target: Protein kinase C alpha type (Homo sapiens) (UniProt P17252); experiment: Inhibition of PKCalpha (unknown origin) at 10 uM incubated for 30 mins in presence of [gamma-33P]ATP by multidrop micro reagent based assay relative to control; values are per cent of control
[7] = target: T2, Dual specificity tyrosine-phosphorylation-regulated kinase 3 (Homo sapiens) (UniProt O43781); experiment: Inhibition of DYRK3 (unknown origin) at 10 uM incubated for 30 mins in presence of [gamma-33P]ATP by multidrop micro reagent based assay relative to control
T2 sequence (whole entry): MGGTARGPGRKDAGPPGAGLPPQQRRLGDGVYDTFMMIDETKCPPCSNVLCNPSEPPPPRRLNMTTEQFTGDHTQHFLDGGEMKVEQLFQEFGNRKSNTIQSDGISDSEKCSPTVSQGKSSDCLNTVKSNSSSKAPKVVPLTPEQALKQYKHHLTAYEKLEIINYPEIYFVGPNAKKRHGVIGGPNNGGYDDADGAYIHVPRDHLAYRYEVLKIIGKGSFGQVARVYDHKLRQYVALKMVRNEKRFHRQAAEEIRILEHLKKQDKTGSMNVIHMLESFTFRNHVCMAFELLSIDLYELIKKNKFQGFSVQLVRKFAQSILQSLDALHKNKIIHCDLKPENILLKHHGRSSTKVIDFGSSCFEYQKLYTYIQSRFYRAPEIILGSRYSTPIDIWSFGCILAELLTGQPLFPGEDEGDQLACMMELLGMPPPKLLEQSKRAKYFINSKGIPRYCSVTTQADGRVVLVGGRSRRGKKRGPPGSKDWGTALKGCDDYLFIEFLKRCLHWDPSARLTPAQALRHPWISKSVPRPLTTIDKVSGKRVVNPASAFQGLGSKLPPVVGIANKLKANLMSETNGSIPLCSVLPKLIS

[8] = target: Serine/threonine-protein kinase pim-3 (Homo sapiens) (UniProt Q86V86); experiment: Inhibition of PIM3 (unknown origin) at 10 uM incubated for 30 mins in presence of [gamma-33P]ATP by multidrop micro reagent based assay relative to control; values are per cent of control
[9] = target: RAC-beta serine/threonine-protein kinase (Homo sapiens) (UniProt P31751); experiment: Inhibition of PKBbeta (unknown origin) at 10 uM incubated for 30 mins in presence of [gamma-33P]ATP by multidrop micro reagent based assay relative to control; values are per cent of control
[10] = target: SRSF protein kinase 1 (Homo sapiens) (UniProt Q96SB4); experiment: Inhibition of SRPK1 (unknown origin) at 10 uM incubated for 30 mins in presence of [gamma-33P]ATP by multidrop micro reagent based assay relative to control; values are per cent of control

Leucine-rich repeat serine/threonine-protein kinase 2 (Mus musculus), sequence (Q5S006 whole entry): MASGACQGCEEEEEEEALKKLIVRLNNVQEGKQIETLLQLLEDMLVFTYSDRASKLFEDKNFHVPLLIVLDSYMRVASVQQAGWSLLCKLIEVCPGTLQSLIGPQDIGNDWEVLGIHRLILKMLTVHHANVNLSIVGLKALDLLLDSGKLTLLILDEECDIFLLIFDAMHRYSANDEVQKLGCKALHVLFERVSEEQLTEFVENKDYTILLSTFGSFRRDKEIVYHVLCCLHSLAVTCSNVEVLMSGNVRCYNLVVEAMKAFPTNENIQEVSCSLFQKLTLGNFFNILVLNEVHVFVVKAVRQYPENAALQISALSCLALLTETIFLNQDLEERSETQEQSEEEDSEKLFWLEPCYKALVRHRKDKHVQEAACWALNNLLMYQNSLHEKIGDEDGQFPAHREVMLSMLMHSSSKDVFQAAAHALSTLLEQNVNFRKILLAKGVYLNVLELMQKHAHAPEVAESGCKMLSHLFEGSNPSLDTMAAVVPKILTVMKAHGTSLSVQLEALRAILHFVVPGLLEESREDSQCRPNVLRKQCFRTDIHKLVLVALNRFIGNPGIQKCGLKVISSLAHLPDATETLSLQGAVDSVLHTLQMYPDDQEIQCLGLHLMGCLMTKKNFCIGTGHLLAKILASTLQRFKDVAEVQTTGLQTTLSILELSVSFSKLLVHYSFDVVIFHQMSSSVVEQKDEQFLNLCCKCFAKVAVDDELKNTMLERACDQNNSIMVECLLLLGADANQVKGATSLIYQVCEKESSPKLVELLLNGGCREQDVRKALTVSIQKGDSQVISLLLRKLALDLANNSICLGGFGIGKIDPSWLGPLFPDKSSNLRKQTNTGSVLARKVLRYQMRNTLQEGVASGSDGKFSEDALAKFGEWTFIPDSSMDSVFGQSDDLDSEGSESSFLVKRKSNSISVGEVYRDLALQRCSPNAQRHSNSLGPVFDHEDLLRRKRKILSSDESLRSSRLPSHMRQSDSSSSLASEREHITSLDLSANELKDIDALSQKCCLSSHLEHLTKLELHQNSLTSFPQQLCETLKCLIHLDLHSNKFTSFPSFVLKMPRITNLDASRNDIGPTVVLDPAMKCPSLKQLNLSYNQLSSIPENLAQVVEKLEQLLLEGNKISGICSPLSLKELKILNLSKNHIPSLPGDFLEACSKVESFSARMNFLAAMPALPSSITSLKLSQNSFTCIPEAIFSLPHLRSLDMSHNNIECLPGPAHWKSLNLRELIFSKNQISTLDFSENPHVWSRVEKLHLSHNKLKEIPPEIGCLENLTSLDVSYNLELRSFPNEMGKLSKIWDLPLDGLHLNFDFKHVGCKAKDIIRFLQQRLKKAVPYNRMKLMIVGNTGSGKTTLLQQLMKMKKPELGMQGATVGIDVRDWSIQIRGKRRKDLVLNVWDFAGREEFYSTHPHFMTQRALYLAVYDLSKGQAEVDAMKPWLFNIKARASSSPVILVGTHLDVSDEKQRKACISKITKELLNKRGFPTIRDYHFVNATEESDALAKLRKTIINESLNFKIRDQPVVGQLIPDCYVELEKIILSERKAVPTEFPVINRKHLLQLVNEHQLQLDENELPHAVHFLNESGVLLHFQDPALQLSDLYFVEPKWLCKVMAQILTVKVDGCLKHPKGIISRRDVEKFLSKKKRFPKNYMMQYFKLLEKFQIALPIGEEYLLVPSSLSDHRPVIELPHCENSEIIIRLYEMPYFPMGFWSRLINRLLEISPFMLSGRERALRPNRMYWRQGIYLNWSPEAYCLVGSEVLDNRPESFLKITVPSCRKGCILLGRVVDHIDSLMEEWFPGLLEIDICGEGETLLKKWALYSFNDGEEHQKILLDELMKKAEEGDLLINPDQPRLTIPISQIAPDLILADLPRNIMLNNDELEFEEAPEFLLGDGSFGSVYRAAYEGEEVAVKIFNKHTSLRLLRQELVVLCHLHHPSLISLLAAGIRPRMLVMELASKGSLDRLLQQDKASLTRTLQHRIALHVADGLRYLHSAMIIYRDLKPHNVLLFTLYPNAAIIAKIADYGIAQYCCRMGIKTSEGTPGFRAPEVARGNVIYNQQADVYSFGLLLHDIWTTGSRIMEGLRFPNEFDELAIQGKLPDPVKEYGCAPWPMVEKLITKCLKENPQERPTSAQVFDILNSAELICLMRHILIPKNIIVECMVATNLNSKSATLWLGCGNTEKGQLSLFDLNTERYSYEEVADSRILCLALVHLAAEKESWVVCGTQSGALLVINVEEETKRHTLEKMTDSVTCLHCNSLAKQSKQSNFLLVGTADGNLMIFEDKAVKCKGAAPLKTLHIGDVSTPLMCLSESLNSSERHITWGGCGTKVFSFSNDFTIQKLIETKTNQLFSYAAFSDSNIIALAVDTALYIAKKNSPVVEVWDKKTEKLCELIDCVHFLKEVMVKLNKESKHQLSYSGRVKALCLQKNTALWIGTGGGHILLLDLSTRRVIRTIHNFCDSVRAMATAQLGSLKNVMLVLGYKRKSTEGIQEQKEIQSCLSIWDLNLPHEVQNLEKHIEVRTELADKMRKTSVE
RAC-beta serine/threonine-protein kinase (Homo sapiens), sequence (P31751 whole entry): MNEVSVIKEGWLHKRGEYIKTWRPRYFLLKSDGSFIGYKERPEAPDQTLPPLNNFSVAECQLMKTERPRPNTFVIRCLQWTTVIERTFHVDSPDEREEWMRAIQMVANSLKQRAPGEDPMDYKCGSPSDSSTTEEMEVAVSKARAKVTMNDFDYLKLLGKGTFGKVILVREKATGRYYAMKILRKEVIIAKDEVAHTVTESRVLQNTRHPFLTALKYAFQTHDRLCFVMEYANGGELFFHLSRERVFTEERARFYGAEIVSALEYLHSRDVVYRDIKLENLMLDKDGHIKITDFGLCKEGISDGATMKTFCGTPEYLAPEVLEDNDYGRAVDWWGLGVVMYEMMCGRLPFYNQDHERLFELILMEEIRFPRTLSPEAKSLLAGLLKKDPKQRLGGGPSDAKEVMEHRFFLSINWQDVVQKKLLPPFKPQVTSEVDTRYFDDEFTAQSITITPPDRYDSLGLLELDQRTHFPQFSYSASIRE
Serine/threonine-protein kinase D1 (Homo sapiens), sequence (Q15139 whole entry, looked up): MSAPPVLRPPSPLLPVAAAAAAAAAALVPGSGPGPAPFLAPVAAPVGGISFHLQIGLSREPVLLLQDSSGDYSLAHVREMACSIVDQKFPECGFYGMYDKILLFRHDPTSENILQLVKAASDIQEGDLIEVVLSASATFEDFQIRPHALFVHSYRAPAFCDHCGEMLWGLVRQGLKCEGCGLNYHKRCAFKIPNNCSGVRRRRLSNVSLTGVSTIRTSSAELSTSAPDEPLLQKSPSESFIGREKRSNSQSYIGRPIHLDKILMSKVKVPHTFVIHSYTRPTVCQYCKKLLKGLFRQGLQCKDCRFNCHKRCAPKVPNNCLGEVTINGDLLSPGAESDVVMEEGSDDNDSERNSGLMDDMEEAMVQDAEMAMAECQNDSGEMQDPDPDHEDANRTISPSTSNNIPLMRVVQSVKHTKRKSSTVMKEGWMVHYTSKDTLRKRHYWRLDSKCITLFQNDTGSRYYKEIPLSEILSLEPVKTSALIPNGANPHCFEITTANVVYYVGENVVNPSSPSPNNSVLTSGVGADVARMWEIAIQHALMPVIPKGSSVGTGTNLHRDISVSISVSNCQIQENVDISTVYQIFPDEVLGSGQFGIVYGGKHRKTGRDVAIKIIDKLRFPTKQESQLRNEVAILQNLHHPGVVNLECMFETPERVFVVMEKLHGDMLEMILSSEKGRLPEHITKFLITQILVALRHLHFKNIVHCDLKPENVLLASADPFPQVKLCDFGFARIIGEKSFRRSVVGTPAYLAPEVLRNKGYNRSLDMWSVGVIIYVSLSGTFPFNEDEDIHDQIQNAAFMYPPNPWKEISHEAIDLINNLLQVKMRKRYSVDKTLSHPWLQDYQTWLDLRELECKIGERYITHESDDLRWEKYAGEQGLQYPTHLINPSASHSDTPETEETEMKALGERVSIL

**Q.** With `CC1=C(C(=O)Nc2cc3cn[nH]c3cc2F)C(c2ccc(C(F)(F)F)cc2)CC(=O)N1` (stereo not given) as the compound, how does the residual activity [1] read?
**A.** The residual activity was 98%.

**Q.** What about the residual activity [2] of the same compound?
**A.** The residual activity was 111%.

**Q.** For `CCN(CC)CCNC(=O)c1c(C)[nH]c(/C=C2\C(=O)Nc3ccc(F)cc32)c1C`, which inhibition [3] is on record?
**A.** Its inhibition is 45%.

**Q.** What about the inhibition [4] of the same compound?
**A.** The inhibition was “Active”.

**Q.** `C[C@@H](N)[C@H]1CC[C@H](C(=O)Nc2ccncc2)CC1` was tested. Which residual activity [5] did it give?
**A.** Its residual activity is 89%.

**Q.** What about the residual activity [6] of the same compound?
**A.** The residual activity was 52%.

**Q.** What about the inhibition [7] of the same compound?
**A.** The inhibition was 100%.

**Q.** What about the residual activity [8] of the same compound?
**A.** The residual activity was 87%.

**Q.** What about the residual activity [9] of the same compound?
**A.** Its residual activity is 105%.

**Q.** What about the residual activity [10] of the same compound?
**A.** The residual activity was 65%.
